Experimental data reported in BindingDB's records for patent US20250382289 (Xizang Haisco Pharmaceutical, 2025).

Molecular target: Ubiquitin carboxyl-terminal hydrolase 1/WD repeat-containing protein 48 (Homo sapiens, UniProt O94782)
Experiment: Inhibitory Activity on USP1/UAF1 Enzymology
Description: Ubiquitin rhodamine 110 was used as a substrate to detect the activity of the deubiquitinating enzyme USP1/UAF1 after drug treatment. The total test system was 20 μl, and the test buffer comprises 50 mM Tris-HCl (pH 7.8), 0.5 mM EDTA, 0.01% Bovine Serum Albumin, 1 mM DTT, and 0.01% Tween-20.

Ubiquitin carboxyl-terminal hydrolase 1/WD repeat-containing protein 48, sequence (O94782 whole entry): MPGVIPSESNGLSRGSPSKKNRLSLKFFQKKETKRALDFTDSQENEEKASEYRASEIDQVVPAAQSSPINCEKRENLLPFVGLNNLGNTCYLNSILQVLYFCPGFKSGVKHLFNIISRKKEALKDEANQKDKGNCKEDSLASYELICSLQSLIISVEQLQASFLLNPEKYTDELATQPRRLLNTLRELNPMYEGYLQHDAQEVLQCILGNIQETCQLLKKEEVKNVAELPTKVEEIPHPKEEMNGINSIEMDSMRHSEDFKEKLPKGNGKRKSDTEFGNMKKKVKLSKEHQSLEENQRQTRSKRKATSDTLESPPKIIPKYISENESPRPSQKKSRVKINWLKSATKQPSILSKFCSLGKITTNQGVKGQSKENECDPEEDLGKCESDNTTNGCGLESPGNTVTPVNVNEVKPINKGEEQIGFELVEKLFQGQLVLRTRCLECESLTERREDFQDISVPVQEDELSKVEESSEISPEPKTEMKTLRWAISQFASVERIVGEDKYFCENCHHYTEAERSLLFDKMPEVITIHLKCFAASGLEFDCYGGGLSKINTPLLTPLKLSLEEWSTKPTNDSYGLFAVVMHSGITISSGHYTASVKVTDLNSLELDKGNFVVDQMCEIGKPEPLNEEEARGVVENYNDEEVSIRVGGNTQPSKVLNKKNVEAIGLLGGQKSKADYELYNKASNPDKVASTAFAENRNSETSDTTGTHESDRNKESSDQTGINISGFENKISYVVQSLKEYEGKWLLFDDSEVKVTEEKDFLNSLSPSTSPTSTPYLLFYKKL
Ubiquitin carboxyl-terminal hydrolase 1/WD repeat-containing protein 48, sequence (Q8TAF3 whole entry, further chain): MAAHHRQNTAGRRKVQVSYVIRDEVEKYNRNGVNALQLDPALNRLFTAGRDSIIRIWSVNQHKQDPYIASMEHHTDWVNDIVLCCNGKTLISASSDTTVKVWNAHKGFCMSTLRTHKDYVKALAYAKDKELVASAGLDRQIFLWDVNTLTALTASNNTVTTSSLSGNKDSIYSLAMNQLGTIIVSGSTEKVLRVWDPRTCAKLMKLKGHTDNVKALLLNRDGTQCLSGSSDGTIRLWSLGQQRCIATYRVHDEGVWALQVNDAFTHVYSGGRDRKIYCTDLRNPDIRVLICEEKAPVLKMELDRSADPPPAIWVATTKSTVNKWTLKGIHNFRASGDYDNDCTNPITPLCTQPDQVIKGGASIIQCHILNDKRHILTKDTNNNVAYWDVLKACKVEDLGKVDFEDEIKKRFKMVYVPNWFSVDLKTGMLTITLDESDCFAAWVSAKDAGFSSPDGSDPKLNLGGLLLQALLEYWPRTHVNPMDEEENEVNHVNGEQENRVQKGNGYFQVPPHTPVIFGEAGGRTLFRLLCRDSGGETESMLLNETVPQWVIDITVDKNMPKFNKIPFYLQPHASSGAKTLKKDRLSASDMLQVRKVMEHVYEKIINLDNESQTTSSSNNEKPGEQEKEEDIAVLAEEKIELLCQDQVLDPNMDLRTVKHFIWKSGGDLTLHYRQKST

IC50, < 0.02 µM:
Fc1c(-c2c(OC(F)F)ncnc2C2CC2)ncc2cnn(Cc3ccc(-c4nc(C(F)(F)F)c5n4CC(F)(F)C5)cc3)c12 [US20250382289, Compound 14]
Fc1c(-c2c(OC(F)F)ncnc2C2CC2)ncc2cnn(CC34CCC(c5nc(C(F)(F)F)cn5CC5CC5)(CC3)CC4)c12 [US20250382289, Compound 10]
COc1ncnc(C2CC2)c1-c1ncc2cnn(Cc3ccc(-c4nc(C(F)(F)F)c5n4CC4(CC4)C5)cc3)c2c1F [US20250382289, Compound 21]
CC(C)n1cc(C(F)(F)F)nc1-c1ccc(Cn2ncc3cnc(-c4c(OC(F)F)ncnc4C4CC4)c(F)c32)cc1 [US20250382289, Compound 20]
C#CCn1cc(C(F)(F)F)nc1-c1ccc(Cn2ncc3cnc(-c4c(OC(F)F)ncnc4C4CC4)c(F)c32)cc1 [US20250382289, Compound 18]
Fc1c(-c2c(OC(F)F)ncnc2C2CC2)ncc2cnn(Cc3ccc(-c4nc(C(F)(F)F)c5n4CC4(CC4)C5)cc3)c12 [US20250382289, Compound 12]
CC#CCn1cc(C(F)(F)F)nc1-c1ccc(Cn2ncc3cnc(-c4c(OC(F)F)ncnc4C4CC4)c(F)c32)cc1 [US20250382289, Compound 19]
